Experimental data reported in US10610517B2, “Compositions and methods for treating neoplastic diseases” (Celgene International II Sàrl, priority 2004, dated 2020).

What was measured:
[1] = tested on: Chymotrypsin-like proteasome activity; type: cell-based, human; conditions: data not shown
Description: (§1) Whether the compound of formula (II) or Bortezomib alters proteasome activity in normal lymphocytes and skin fibroblasts was also examined.

[2] = tested on: Lymphocytes from five healthy donors; experiment: MTT cytotoxicity on normal lymphocytes
Description: Bortezomib therapy is associated with toxicity in patients. […] Results are the mean±SD of three independent experiments.

[3] = tested on: Bcl2-transfected MM.1S cells; experiment: MTT viability of Bcl2-transfected MM.1S cells
Procedure: Bcl2 confers resistance to conventional therapies in cancer cells, including MM. […] Bcl2 can modestly attenuate Bortezomib-induced apoptosis. Thus, whether ectopic expression of Bcl2 in MM.1S cells affects responsiveness to the compound of formula (II) (X=Cl) was evaluated. MM.1S cells were stably transfected with Bcl2 construct and analyzed for alterations in cell viability using an MTT assay. […] Results are mean±SD of three independent experiments.
During apoptosis Bax neutralizes the antiapoptotic function of Bcl-2, thereby facilitating the cyto-c release and caspase-9 activation. Bcl-2 also confers drug resistance in cancer cells, including MM, and provides partial protection against Bortezomib-induced killing. Therefore, whether ectopic expression of Bcl-2 in MM.1S cells affects the ability of the compound of formula (II) or Bortezomib to trigger cytotoxicity and postmitochondrial apoptotic signaling in MM cells was evaluated.

[4] = tested on: patient MM-derived BMSCs; experiment: DNA fragmentation apoptosis assay on bone marrow stromal cells; type: cell-based, human; conditions: 20 nM, 24 h, BMSCs Patient #1-5; FIG. 6
[5] = tested on: MM.1S cells; experiment: Mitochondrial and caspase apoptotic signaling in MM cells (flow cytometry, immunoblot); type: cell-based, human; conditions: 7 nM
Procedure: Mitochondria play a critical role in apoptosis induction during stress. See Bossy-Wetzel, E. & Green, D. R. (1999) Mutat Res 434, 243-51 and Chauhan, D. & Anderson, K. C. […] Superoxide (O2^−) production was measured by staining cells with membrane permeable dye dihydroethidium (HE) for the last 15 min. Superoxide anions oxidize HE to fluorescent ethidium, permitting analysis by flow cytometry.
Reprobing the immunoblots with anti-Hsp60 (lower, left panel) and anti-tubulin (lower, right panel) Abs confirms purity of mitochondrial extracts and equal protein loading. Release of mitochondrial apoptogenic proteins cyto-c and Smac/DIABLO induce activation of caspases-9 and -3. […] As a control for equal loading of proteins and purity of mitochondrial fractions, filters were also reprobed with anti-tubulin (lower right panel) and anti-Hsp60 Abs (lower left panel), respectively. Blots are representative of three independent experiments.
Both caspase-9 (mitochondria-dependent) and caspase-8 (mitochondria-independent) are known to proteolytically cleave and activate a common downstream effector capsase-3, resulting in PARP cleavage. […] Total protein lysates were subjected to SDS-PAGE analysis. Immunoblot analysis of the lysates was performed with anti-PARP (upper panel) or anti-caspase-3 (lower panel) Abs. ‘FL’ indicates ‘full length’ and ‘CF’ denotes cleaved fragment.
Immunoblot analysis was performed using antibodies to cytochrome-c, Smac, Caspase-8, -9, or -3 (Cell Signaling, Beverly, Mass.), tubulin (Sigma, St. Louis, Mo.), PARP, Hsp60, or Bax (BD Bioscience Pharmingen, San Diego, Calif.). Blots were developed by enhanced chemiluminesence (ECL; Amersham, Arlington Heights, Ill.).

[6] = tested on: normal CCD-27sk fibroblasts; experiment: cells; type: cell-based, human
Description: as §1

[7] = molecular target: proteasome β-5, β-1, β-2 subunits in MM.1S cells (Homo sapiens, UniProt P28072+P28074+Q99436); type: cell-based
Procedure: In vivo determination of proteasome activity was conducted using a competition experiment with Dansyl-Ahx3L3VS, which covalently modifies all active proteasome subunits. This inhibitor contains a dansyl sulfonamide hexanoyl hapten that can be visualized by immunoblotting using antibodies against the dansyl moiety. […] Cells were lysed by incubating them for 30 mins in NP-40 lysis buffer (50 mM Tris-HCl pH 8.0, 150 mM NaCl, 1% NP-40), followed by 5 min. centrifugation to remove membrane fractions, nuclei, and cell debris. […] Blots were developed by enhanced chemiluminescence (Western Lightning, Perkin-Elmer).

[8] = tested on: MM.1S cells; experiment: MTT viability of MM.1S cells with or without rhIL-6 or rhIGF-I; type: cell-based, human
Description: Adhesion of MM cells to BMSCs induces IL-6 and IGF-I secretion from BMSCs, which not only regulates the growth of MM cells, but also protects against chemotherapy. See Hardin, J., MacLeod, S., Grigorieva, I., Chang, R., Barlogie, B., Xiao, H. & Epstein, J. (1994) Blood 84, 3063-70 and Chauhan, D., Kharbanda, S., Ogata, A., Urashima, M., Teoh, G., Robertson, M., Kufe, D. W. & Anderson, K. C. […] Thus, whether rhIL-6 or rhIGF-I inhibits apoptosis in MM cells induced by the compound of Formula (II) (X=Cl) was evaluated. […] At 24 h cells were harvested and viability analyzed by MTT assays. […] Median viability was 51±2.1% after treatment with Dex and 92±5.5% for Dex+rhIL-6 (P=0.05, as determined by one-sided Wilcoxon rank-sum test). Results are mean±SD of three independent experiments. […] In contrast and as in other studies, both IL-6 and IGF-I block Dex-induced decreased MM.1S cell viability. See Chauhan, D., Hideshima, T. & Anderson, K. C. (2003) Int J Hematol 78, 114-20 and Mitsiades, C. S., Mitsiades, N., Poulaki, V., Schlossman, R., Akiyama, M., Chauhan, D., Hideshima, T., Treon, S. P., Munshi, N. C., Richardson, P. G. & Anderson, K. C.

[9] = tested on: Mouse embryonic fibroblast (MEFs); experiment: MTT viability of MEFs with wild-type or knock-out Bax; type: cell-based; conditions: 48 h; FIG. 12F
Description: Results are mean±SD of three independent experiments (P<0.05).

CC12OC(=O)C1(C(O)C1C=CCCC1)NC(=O)C2CCCl (stereo not shown) [compound of formula (II) (X=Cl)]
inhibition of Chymotrypsin-like proteasome activity ([1]; 20 nM): 99%
proteasome activity in CCD-27sk fibroblasts ([1]; treatment at the IC50): inhibited proteasome activity
viability of normal lymphocytes ([2]; 72 h, 0-20 nM (compound even at 20 nM; Bortezomib at 6-10 nM), FIG. 13): does not significantly decrease the survival of normal lymphocytes
effect on normal lymphocytes at the IC50 of patient MM cells ([2]; in words): no effect on normal lymphocytes
increased survival of Bcl-2 transfectants ([3]; Bcl-2- versus vector-transfected, FIG. 14A): 11%
viability ([3]; Bcl-2-transfected cells, FIG. 14A): 50%±2.6
less cell death in Bcl2-transfected cells compared to empty vector-transfected MM.1S cells ([3]; FIG. 9): 15±1.1%
effect of Bcl-2 overexpression on induced caspase-9 cleavage ([3]; FIG. 14B): minimally affected
cell viability of Bcl2-transfected MM.1S cells ([3]; dose-dependent, FIG. 9): significantly decreases cell viability
viability ([3]; vector-transfected cells, FIG. 14A): 39%±1.5
apoptosis by DNA fragmentation assay [4]: does not induce apoptosis
mitochondrial membrane potential (ΔΨm), CMXRos ([5]; 12 h, serum starved MM.1S, FIG. 11A): decreases ΔΨm
Superoxide (O2−) production, dihydroethidium ([5]; 12 h, FIG. 11B): triggers O2^− production
caspase-3 and PARP cleavage ([5]; 24 h, MM.1S or MM.1R, FIG. 11F): triggers caspase-3 and PARP cleavage
mitochondrial versus cytosolic cyto-c and smac ([5]; 24 h, FIG. 11C): triggers a decrease in mitochondrial cyto-c
caspase-9 cleavage ([5]; 24 h, FIG. 11D): induces proteolytic cleavage of caspase-9
caspase-8 activation ([5]; 24 h, FIG. 11E): activates caspase-8
IC50 [6]: 317 nM
dansylAhx3L3VS-labeling of the β-5 subunits ([7]; 7 nM, 30 mins, 1 h or 3 h, FIG. 4): decreases the dansylAhx3L3VS-labeling of the β-5 subunits
concentration decreasing dansylAhx3L3VS-labeling of the β-1 subunits ([7]; MM.1S cells): 1 nM
concentration decreasing dansylAhx3L3VS-labeling of the β-2 subunits ([7]; MM.1S cells): 20 nM
median cell viability ([8]; agent + rhIL-6 (10 ng/ml), 24 h (compound 7 nM; Dex 0.5 μM)): 51.2±3.2%
median cell viability ([8]; agent alone, 24 h (compound 7 nM; Dex 0.5 μM)): 47±2.3%
median cell viability ([8]; compound 7 nM + rhIGF-I (50 ng/ml), 24 h): 50.3%±2.0
cell viability in Bax (WT) and Bax (knock-out) MEFs [9]: decreases viability in both Bax (WT) and Bax (knock-out)
